Measurements as given in PubChem BioAssay (NCI).
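Dose response: 5 concentrations. Exposure: 48 h. Format: 96-well plates. Endpoint: linear interpolation; highest concentration if not reached. Definition used: TGI = concentration required for complete inhibition of growth.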

Assays:
Assay in all cases: NCI tumour cell line growth inhibition, 48 h
[1] = system: BT-549 breast
[2] = system: LOX IMVI melanoma
[3] = system: SF-268 CNS
[4] = system: M14 melanoma
[5] = system: SN12C renal
[6] = system: HCC-2998 colon
[7] = system: SW-620 colon
[8] = system: NCI-H23 lung
[9] = system: NCI-H522 lung
[10] = system: HCT-116 colon
[11] = system: SK-MEL-28 melanoma
[12] = system: OVCAR-8 ovarian
[13] = system: UACC-62 melanoma
[14] = system: OVCAR-3 ovarian
[15] = system: MDA-N
[16] = system: SK-OV-3 ovarian
[17] = system: ACHN renal
[18] = system: KM12 colon
[19] = system: SF-539 CNS
[20] = system: DU-145 prostate

| SMILES | TGI [1] | TGI [2] | TGI [3] | TGI [4] | TGI [5] | TGI [6] | TGI [7] | TGI [8] | TGI [9] | TGI [10] | TGI [11] | TGI [12] | TGI [13] | TGI [14] | TGI [15] | TGI [16] | TGI [17] | TGI [18] | TGI [19] | TGI [20] |
| --- | --- | --- | --- | --- | --- | --- | --- | --- | --- | --- | --- | --- | --- | --- | --- | --- | --- | --- | --- | --- |
| O=S1(=O)OCCOS(=O)(=O)C1F | > 100 µM | > 100 µM | > 100 µM | > 100 µM | > 100 µM | > 100 µM | > 100 µM | > 100 µM | > 100 µM | > 100 µM | > 100 µM | > 100 µM | > 100 µM | > 100 µM | > 100 µM | > 100 µM | > 100 µM | > 100 µM | > 100 µM | > 100 µM |
| S=C(NCc1ccccc1)c1nc[nH]c1C(=S)NCc1ccccc1 | 27.2 µM | 17.1 µM | 19.8 µM | 20.7 µM | 25 µM | 23.6 µM | 20.8 µM | 25.7 µM | 21.3 µM | 17.9 µM | 26.9 µM | 18.8 µM | 13.4 µM | 18.8 µM | 23 µM | 28.5 µM | 7.51 µM | 20 µM | 23.2 µM | 21.6 µM |
| O=[N+]([O-])c1cc2oc(COc3ccccc3)nc2cc1Cl | 60 µM | 35 µM | > 100 µM | 43.5 µM | 65.1 µM | 43.3 µM | > 100 µM | 40.8 µM | 46.3 µM | 44.9 µM | > 100 µM | > 100 µM | 41.4 µM | 48.2 µM | 69.6 µM | 59.9 µM | > 100 µM | 51.3 µM | 45.8 µM | > 100 µM |
